# Experimental data as given in PMC7403827 (Clinical and Translational Medicine, 2020).
# Where two headings read alike, the source gives them in different places.
# Columns and labels:
# [1] = Gefitinib 225mg, Japanese patients, ref [3] Nakagawa K et al., Annals of Oncology 2003, cited from earlier work
# [2] = Pharmacokinetic analyses: apatinib and gefitinib plasma concentrations (LC–MS/MS, non‐compartmental); settings: for half-life: T1/2, gefitinib 250 mg + apatinib 500 or 250 mg
# Text: In the two cohorts, PK assessment consisted of a single‐dose‐administration on Cycle 1, Day 1's (C1, D1) test and a continuous‐dose‐administration on Cycle 1, Day 15′s (C1, D15) test. For detailed blood collection administration, see the supplementary materials. […] PK parameters, including maximum plasma concentration (C max), area under the plasma concentration‐time curve (AUC), time to reach maximum plasma concentration (T max), elimination half‐life (T 1/2), steady state concentration (Css), area under the plasma concentration‐time curve for steady state (AUCss), steady state volume of distribution (Vdss), and steady state clearance rate (CLss) were calculated using non‐compartmental methods with Winnonlin 7 software. The AUC was estimated by using the linear trapezoidal rule method and T 1/2 was determined by linear regression of the terminal slope of the logarithmic plasma concentration‐time profile. Descriptive statistics were measured for the PK parameters using mean with its corresponding standard deviation (SD).
# In the two cohorts, PK assessment consisted of a single-dose-administration (C1D1) test and a continuous-dose-administration (C1D15) test. Serial peripheral blood samples were collected at pre-dose and 1, 2, 3, 4, 5, 6, 8, 12 and 24 post-dose for the single dose PK test. For the continuous PK test, serial peripheral blood samples were collected at pre-dose and at 0.5, 1, 2, 3, 4, 5, 6, 8, 12, and 24 hours post-dose on […]. Samples were centrifuged, and plasma frozen at −80°C refrigerator until further analysis.
# Descriptive statistics (mean and standard deviation) were estimated for PK parameters. Median values and ranges were provided for time to reach maximum plasma concentration.
# [3] = cited from earlier work
# EGFR‐mutant NSCLC = settings: cited from earlier work
smiles,measurement,setting,value
COc1cc2ncnc(Nc3ccc(F)c(Cl)c3)c2cc1OCCCN1CCOCC1 [Gefitinib],AUC0-24multi,[1]; multiple-dosage regimen,5191 (61) ng·h/ml
same,AUC0-24,[1],1986 (58) ng·h/ml
same,Cmax,[1],150 (92) ng/ml
same,Cmaxmulti,[1],341 (61) ng/ml
same,Tmax,[1],5 (3-7) h
same,Cmaxmulti,"[2]; Table S6, Gefitinib 250mg + apatinib, this study, geometric mean, SD",469 (134) ng/ml
same,Tmax,"[2]; gefitinib 250 mg + apatinib 500 or 250 mg, Day 15 (n = 11), Median (range)",4 (3‐6) h
same,AUC(0-t),"[2]; human, plasma, oral, AUC0-24, Table S6, Gefitinib 250mg + apatinib, this study, geometric mean, SD",3330 ng·h/mL
same,AUC,"[2]; human, plasma, oral, AUC0-24multi, Table S6, Gefitinib 250mg + apatinib, this study, multiple-dosage regimen, geometric mean, SD",8130 ng·h/mL
same,AUC,"[2]; human, plasma, oral, AUC0‐24, gefitinib 250 mg + apatinib 500 or 250 mg, Day 1 (n = 11), Table 2: Geometric Mean (%CV)",3440 ng·h/mL
same,AUC,"[2]; human, plasma, oral, AUC0‐24, gefitinib 250 mg + apatinib 500 or 250 mg, Day 15 (n = 11), Table 2: Geometric Mean (%CV)",7980 ng·h/mL
same,AUC,"[2]; human, plasma, oral, AUC0‐∞, gefitinib 250 mg + apatinib 500 or 250 mg, Day 1 (n = 11), Geometric Mean (%CV)",6400 ng·h/mL
same,AUC,"[2]; human, plasma, oral, AUC0‐∞, gefitinib 250 mg + apatinib 500 or 250 mg, Day 15 (n = 11), Geometric Mean (%CV)",18100 ng·h/mL
same,AUC,"[2]; human, plasma, oral, AUCss, steady state, Gefitinib 250mg + apatinib, Mean±SD",7220 ± 1730 ng·h/mL
same,clearance,"[2]; human, plasma, oral, CL, gefitinib 250 mg + apatinib 500 or 250 mg, Day 1 (n = 11), Mean (SD)",683 mL/min
same,clearance,"[2]; human, plasma, oral, CL, gefitinib 250 mg + apatinib 500 or 250 mg, Day 15 (n = 11), Mean (SD)",533 mL/min
same,clearance,"[2]; human, plasma, oral, CLss, steady state, Gefitinib 250mg + apatinib, Mean±SD",617 mL/min
same,Cmax,"[2]; human, plasma, oral, Table S6, Gefitinib 250mg + apatinib, this study, geometric mean, SD",488 ± 28 ng/mL
same,Cmax,"[2]; human, plasma, oral, gefitinib 250 mg + apatinib 500 or 250 mg, Day 1 (n = 11), Table 2: Geometric Mean (%CV)",272 ng/mL
same,Cmax,"[2]; human, plasma, oral, gefitinib 250 mg + apatinib 500 or 250 mg, Day 15 (n = 11), Table 2: Geometric Mean (%CV)",465 ng/mL
same,half-life,"[2]; human, plasma, oral, Day 1 (n = 11), Mean (SD)",21 h
same,half-life,"[2]; human, plasma, oral, Day 15 (n = 11), Mean (SD)",30 h
same,Tmax,"[2]; human, plasma, oral, Tmax, Table S6, Gefitinib 250mg + apatinib, this study, geometric mean, SD",3.9 h
same,Tmax,"[2]; human, plasma, oral, Tmax, gefitinib 250 mg + apatinib 500 or 250 mg, Day 1 (n = 11), Median (range)",3 h
same,Tmax,"[2]; human, plasma, oral, Tmax, gefitinib 250 mg + apatinib 500 or 250 mg, Day 15 (n = 11), Median (range)",3 h
same,Vd,"[2]; human, plasma, oral, Vd, gefitinib 250 mg + apatinib 500 or 250 mg, Day 1 (n = 11), Mean (SD)",1100 L
same,Vd,"[2]; human, plasma, oral, Vd, gefitinib 250 mg + apatinib 500 or 250 mg, Day 15 (n = 11), Mean (SD)",1330 L
same,Vd,"[2]; human, plasma, oral, Vdss, steady state, Gefitinib 250mg + apatinib, Mean±SD",880 ± 234 L
same,MTD,[3],750 mg/day
C=CC(=O)Nc1cc(Nc2nccc(-c3cn(C)c4ccccc34)n2)c(OC)cc1N(C)CCN(C)C [Osimertinib],mPFS,EGFR‐mutant NSCLC; AURA3 study,10.1 months
C#Cc1cccc(Nc2ncnc3cc(OCCOC)c(OCCOC)cc23)c1 [erlotinib],mPFS,EGFR‐mutant NSCLC; ARTEMIS (CTONG 1509) study,11.3 months
same,PFS,EGFR‐mutant NSCLC; JO25567 study,9.7 months
same,PFS,EGFR‐mutant NSCLC; RELAY study,12.4 months
